From US20040097529A1, “Novel use of arylethene sulfonamide derivative” (priority 2001, published 2004)
Structures can show the parent of a compound that is named as a salt. Where two headings read alike, the source gives them in different places. Bridge positions count the residues as written; N and C are the ends. Ends that are not written are not given here.

Tests used:
[1] = system: chronic renal failure (5/6Nx) rats; conditions: for Systolic blood pressure: tail-cuff
Description: Male Wistar rats of 8 weeks of age were used in the experiment. A Rat was anesthetized with petobarbital and ⅔ of the left kidney was cut off, and one week after the right kidney was removed completely. Two weeks after the ⅚ nephrectomy, systolic blood pressure (SBP) was measured by a tail-cuff method, and the urine was collected in a metabolic cage for 24 hours to measure the urinary protein excretion. Rats were divided into 3 groups (each group: n=9) so that no difference occurred between the respective groups. Thereafter, a solvent (0.5% MC) was orally administered to the ⅚Nx-Cont. group at a dose of 5 ml/kg over 8 weeks. […] Similarly, to the ⅚Nx-Ena. group was administered 10 mg/kg/day of enalapril maleate dissolved in a solvent (0.5% MC). On the other hand, the solvent (0.5% MC) alone was orally administered to the abdominal-sectioned rats as a control group (Sham). Every 2 weeks, the urine was collected for 24 hours to measure the urinary protein excretion. Additionally, every 4 weeks, SBP was measured to examine the effect on the blood pressure.
(§1) The results were indicated by the mean±error. In comparison between the Sham group and the ⅚Nx-Cont. group, a t-test was made without correspondence, and when the significant level is less than 5%, it is considered as a significant difference. In comparison between the ⅚Nx rat-drug groups, multiple comparison (Dunnett's test) was made respectively without correspondence following the variance analysis of one-way classification. When the significant level is less than 5%, it is considered as a significant difference.

[2] = system: diabetic rats induced by streptozotocin (STZ); experiment: Effect on the blood parameter and urinary parameter in diabetic rats induced by streptozotocin (STZ); format: in vivo, Wistar (Crj) rats; conditions: for Blood glucose level: enalapril maleate 10 mg/kg p.o. once a day
Description: Wistar (Crj) rats of 9 weeks of age were divided into 5 groups so that there was no bias in urinary albumin excretion. To the 4 groups of the rats was administered intravenously STZ (50 mg/kg). […] After the lapse of 2, 4 and 6 weeks from the start of administration, urine was collected for 24 hours in a metabolic cage to measure a urinary parameter. The blood was collected from the tail vein after 2 and 4 weeks and from the abdominal aorta under anesthesia after 6 weeks to measure a blood parameter.
as §1, with “STZ-Cont.” for “⅚Nx-Cont.”, “STZ-dose groups of rats,” for “⅚Nx rat-drug groups,”

[3] = system: STZ-induced diabetic rats; conditions: cited from earlier work
[4] = system: rat's cultured mesangial cells; experiment: Effect of ET on the growth and hypertrophy of rat's cultured mesangial cells; format: cell-based; conditions: for growth and hypertrophy of rat's cultured mesangial cells: depending on the concentration of 10^−12 to 10^−7M; for concentration of the maximum reaction (growth and hypertrophy): rat's cultured mesangial cells
Description: In measurement of the hypertrophy activity, the cells used in the measurement of the cell growth activity using an Alamar Blue reagent were washed 3 times with a phosphate buffer, to which cells was added a direct protein-determining reagent (BioRad) to measure the absorbance at 595 nm. The protein content was calculated from the analytical curve. The protein content per the unit cell number was given as the hypertrophy activity from the cell number obtained by measurement of the growth activity.
The results were indicated by the mean±error.

[5] = enalapril maleate 10 mg/kg p.o.
[6] = enalapril maleate 10 mg/kg p.o., 4 weeks
[7] = 5/6Nx rats, enalapril maleate 10 mg/kg/day p.o., 0 week
[8] = 5/6Nx rats, enalapril maleate 10 mg/kg/day p.o., 4 weeks
[9] = 5/6Nx rats, enalapril maleate 10 mg/kg/day p.o., 8 weeks
[10] = continuously injected intraperitoneally

Compound: COc1ccccc1Oc1c(NS(=O)(=O)C=Cc2ccccc2)nc(-c2ncccn2)nc1OC [Compound 1, N-[6-Methoxy-5-(2-methoxyphenoxy)-2-(pyrimidin-2-yl)pyrimidin-4-yl]-2-phenylethenesulfonamide]
- death cases (mortality in renal dysfunction cases) ([1]; rat, in vivo, po, 1 mg/kg/day): no death was observed

Compound: CCOC(=O)[C@H](CCc1ccccc1)N[C@@H](C)C(=O)N1CCC[C@H]1C(=O)O [Ena., enalapril maleate]
- inhibition of elevation of creatinine clearance (Ccr) [2, 5]: there was no tendency that elevation of Ccr was inhibited
- urinary albumin excretion (UAE) change [2, 5]: no UAE reduction was observed
- Blood glucose level ([2]; 2 weeks): 403.0 ± 13.0 mg/dL
- Blood glucose level ([2]; 4 weeks): 393.2 ± 17.6 mg/dL
- Blood glucose level ([2]; 6 weeks): 394.3 ± 9.6 mg/dL
- Urinary albumin excretion ([2]; enalapril maleate 10 mg/kg p.o., 0 week): 0.46 ± 0.04 mg/day
- Urinary albumin excretion ([2]; enalapril maleate 10 mg/kg p.o., 2 weeks): 0.91 ± 0.13 mg/day
- Blood cholesterol level [2, 6]: 148.8 ± 11.2 mg/dL
- Urinary albumin excretion [2, 6]: 0.65 ± 0.14 mg/day
- blood triglyceride level [2, 6]: 407.0 ± 35.7 mg/dL
- Urinary albumin excretion ([2]; enalapril maleate 10 mg/kg p.o., 6 weeks): 1.27 ± 0.18 mg/day
- hypotensive effect (SBP) ([1]; 5/6Nx rats, enalapril maleate 10 mg/kg/day p.o.): a hypotensive effect was markedly recognized
- Urinary protein excretion [1, 7]: 36.9 ± 4.7 mg/day
- Systolic blood pressure [1, 7]: 136 ± 4 mmHg
- Urinary protein excretion ([1]; 5/6Nx rats, enalapril maleate 10 mg/kg/day p.o., 2 weeks): 45.5 ± 10.5 mg/day
- Urinary protein excretion [1, 8]: 78.4 ± 15.3 mg/day
- Systolic blood pressure [1, 8]: 129 ± 8 mmHg
- Urinary protein excretion ([1]; 5/6Nx rats, enalapril maleate 10 mg/kg/day p.o., 6 weeks): 165.1 ± 28.1 mg/day
- Urinary protein excretion [1, 9]: 261.2 ± 43.2 mg/day
- Systolic blood pressure [1, 9]: 124 ± 6 mmHg
- death cases (mortality in renal dysfunction cases) ([1]; 5/6Nx rats, enalapril maleate 10 mg/kg/day p.o., 9 cases per group): 2
- death cases (mortality in renal dysfunction cases) ([1]; 5/6Nx rats, enalapril maleate 10 mg/kg/day p.o., 9 cases per group, listed as enalapril): two death cases

Compound: COc1ccccc1Oc1c(NS(=O)(=O)c2ccc(C(C)(C)C)cc2)nc(-c2ncccn2)nc1OCCO [bosentan]
- plasma glucose level [3]: do not change the plasma glucose level

Compound: COc1cc(OC)nc(O[C@H](C(=O)O)C(OC)(c2ccccc2)c2ccccc2)n1 [darusentan]
- blood triglyceride level ([3]; 100 mg/kg, p.o., decreased only in comparison with control group): decreases the blood triglyceride level
- Blood glucose level ([3]; 100 mg/kg, p.o.): does not change the blood glucose level
- microalbuminuria ([3]; 100 mg/kg/day for 160 days): has a tendency to reduce microalbuminuria

Compound: ET-1: Endothelin iso-peptide, endogenous physiologically active peptide consisting of 21 amino acids (CSCSSLMDKECVYFCHLDIIW; disulfide 1-15, 3-11; ends not checked; UniProt P05305 53-73, looked up)
- growth and hypertrophy of rat's cultured mesangial cells [4]: promoted the growth and hypertrophy
- concentration of the maximum reaction (growth and hypertrophy) [4]: 10^−8 M

Compound: ET-3: Endothelin iso-peptide, endogenous physiologically active peptide consisting of 21 amino acids (CTCFTYKDKECVYYCHLDIIW; disulfide 1-15, 3-11; ends not checked; UniProt P14138 97-117, looked up)
- growth and hypertrophy of rat's cultured mesangial cells [4]: promoted the growth and hypertrophy
- concentration of the maximum reaction (growth and hypertrophy) [4]: 10^−8 M

Compound: FR139317
- plasma glucose level [3]: do not change the plasma glucose level
- excretion of microalbuminuria [3, 10]: reduces excretion of microalbuminuria
- gene expression of the extracellular matrix of the glomerulus [3, 10]: inhibits gene expression of the extracellular matrix of the glomerulus
